# Patent publication US4088772A, “Methanodibenzocycloheptapyrroles” (E. I. Du Pont de Nemours and Company, priority 1975, dated 1978)
# Counter-ions that a name gives are not always drawn. Like-named read-outs stand apart in the source and are kept apart here.
# Assays:
# female white mice = assay: in vivo; conditions: oral; for LD50 / Catatonia ED50 / Exploratory Loss Visual ED50 / Muscle Tone ED50 / Ptosis ED50 / Reflexes Grip ED50 / Reflexes Lift ED50 / Reflexes Pinna ED50 / Tremors ED50: Table 1; for LD50: 24-hour value; for Catatonia ED50 / Exploratory Loss Visual ED50 / Muscle Tone ED50 / Ptosis ED50 / Reflexes Grip ED50 / Reflexes Lift ED50 / Reflexes Pinna ED50 / Tremors ED50 / ED50: mice; for ED50: Mus musculus, po
# Protocol: (§1) Groups of five Carworth CF1 S female mice, 16-20 g each, were fasted 16-22 hours before use. The mice were put in opaque plastic "shoe-box" cages 15-30 min. before injection, and then treated orally with 4, 12, 36, 108 and 324 mg/kg of the compound to be tested as a 13 mg/ml solution in 1% aqueous distilled water solution of methylcellulose (Methocel®). Each dose was given in a standard volume of 0.45 ml. Observations were made at 0.5, 2 and 24 hours after dosing. ED50 values were calculated for each parameter including death (LD50). The ED50 and LD50 values are the doses at which 50% of the naimals would be expected to respond.
# (§2) The mouse is placed on a stainless steel wire mesh screen (8 × 12 inches, 3 mesh per inch, 1/4 inch mesh openings) "shoe-box" lid (1 inch high) and is observed for normal activities, such as nose movements, head movements with apparent visual examination of the area, and/or walking around on the screen. Absence of or marked depression of these activities for 5 seconds constitutes loss of exploratory activity.
# (§3) The mouse is picked up by the tail and placed on the screen with its head facing the observer. Bilateral eyelid closure of 50% or more two seconds after placement is considered ptosis.
# (§4) The mouse is placed with its front paws on the edge of a stainless steel "shoe-box" cover, 1 inch high, covered with adhesive tape. Failure to remove both paws from the cover's edge within 5 seconds constitutes catatonia.
# (§5) The observer gently strokes the abdominal musculature of the mouse with thumb and forefinger. Flaccidity (or rarely, tenseness) is recorded.
# (§6) The mouse is gently swung by the tail toward a horizontal 12 gauge wire tautly stretched 25 cm above the bench. After the mouse grasps the wire with its forepaws, its posterior end is held directly below the wire. A normal mouse grasps the wire with its forepaws and immediately lifts its hind limbs to the wire. Failure to grasp the wire with the forepaws in both trials constitutes loss of the grip reflex; failure to lift the hind limbs to grasp the wire with at least one hind paw within 5 seconds constitutes loss of the lift reflex.
# (§7) The mouse is placed on the bar 10-20 cm horizontally and 9 cm vertically from a Galton whistle adjusted for 13 kc (5 mm on the whistle scale) and is subjected to several short bursts of sound.
# (§8) An effective tranquilizer should induce little or no tremor response. […] Tremors include fine or coarse and intermittent or continuous tremors.
# in vivo = conditions: mouse, in vivo, po
# Protocol: as §1, §2, §3, §4, §5, §6, §7, §8
# [1] = test system: phenylquinone-induced writhing; assay: Phenylquinone writhing test (analgesia); assay type: in vivo, mouse (Carworth CF1 S female); conditions: for ED50: Mus musculus, po, Table 1, mice; for Phenylquinone Analgesia ED50: Table 1, oral, mice
# Source text: This mouse test is predictive of analgesic response in humans. [E. Siegmund, R. Cadmus and G. Lee, Proc. Soc.
# ED50 values were obtained graphically from the data.
# [2] = read-out: Catatonia ED50, Table 1
# [3] = read-out: Exploratory Loss Visual ED50, Table 1
# [4] = read-out: Muscle Tone ED50, Table 1
# [5] = read-out: Reflexes Grip ED50, Table 1
# [6] = read-out: Reflexes Lift ED50, Table 1
# [7] = read-out: Reflexes Pinna ED50, Table 1
# [8] = read-out: Catatonia ED50, Table III
# [9] = read-out: Exploratory Loss Visual ED50, Table III
# [10] = read-out: Muscle Tone ED50, Table III
# [11] = read-out: Ptosis ED50, Table III
# [12] = read-out: Reflexes Grip ED50, Table III
# [13] = read-out: Reflexes Lift ED50, Table III
# [14] = read-out: Reflexes Pinna ED50, Table III
compound,measurement,setting,value
"5- and 11-Chloro-2-cyclohexylmethyl-2,3,8,12b-tetrahydro-1H-3a,8-methanodibenzo[3,4:6,7]cyclohepta[1,2-c]pyrrole [Example 44]",LD50,female white mice,> 324 mg/kg
same,Catatonia ED50,female white mice,19 mg/kg
same,Exploratory Loss Visual ED50,female white mice,17 mg/kg
same,Muscle Tone ED50,female white mice,12 mg/kg
same,Ptosis ED50,female white mice,< 3 mg/kg
same,Reflexes Grip ED50,female white mice,> 324 mg/kg
same,Reflexes Lift ED50,female white mice,36 mg/kg
same,Reflexes Pinna ED50,female white mice,11 mg/kg
same,Tremors ED50,female white mice,> 324 mg/kg
"5- and 11-Chloro-2-methyl-2,3,8,12b-tetrahydro-1H- 3a,8-methanodibenzo[3,4:6,7]cyclohepta[1,2-c]pyrrole [Example 43]",LD50,female white mice,200 mg/kg
same,Catatonia ED50,female white mice,100 mg/kg
same,Exploratory Loss Visual ED50,female white mice,7 mg/kg
same,Muscle Tone ED50,female white mice,20 mg/kg
same,Ptosis ED50,female white mice,20 mg/kg
same,Reflexes Grip ED50,female white mice,60 mg/kg
same,Reflexes Lift ED50,female white mice,20 mg/kg
same,Reflexes Pinna ED50,female white mice,20 mg/kg
same,Tremors ED50,female white mice,36 mg/kg
"c1ccc2c(c1)[C@@H]1C[C@@]3(CN(CC4CCCC4)C[C@H]23)c2ccccc21 (relative stereo) [Cyclopentylmethyl (free base), 2-Cyclopentylmethyl-2,3,8,12b-tetrahydro-1H-3a,8-methanodibenzo[3,4:6,7]cyclohepta[1,2-c]pyrrole]",LD50 at 24 h,in vivo,> 324 mg/kg
same,ED50,female white mice; [2],7 mg/kg
same,ED50,female white mice; [3],< 3 mg/kg
same,ED50,female white mice; [4],< 3 mg/kg
same,ED50,"female white mice; read-out: Ptosis ED50, Table 1",< 3 mg/kg
same,ED50,female white mice; [5],260 mg/kg
same,ED50,female white mice; [6],4.5 mg/kg
same,ED50,female white mice; [7],< 3 mg/kg
same,ED50,[1],< 130 mg/kg
"C1=CCCC(CN2C[C@@H]3c4ccccc4[C@@H]4C[C@@]3(C2)c2ccccc24)CC1 (relative stereo) [Example 33, 2-(4-Cycloheptenylmethyl)-2,3,8,12b-tetrahydro-1H-3a,8-methanodibenzo[3,4:6,7]cyclohepta[1,2-c]pyrrole]",ED50,in vivo,> 324 mg/kg
same,LD50 at 24 h,in vivo,> 324 mg/kg
same,ED50,female white mice; [2],11 mg/kg
same,ED50,female white mice; [3],9 mg/kg
same,ED50,female white mice; [4],7 mg/kg
same,ED50,"female white mice; read-out: Ptosis ED50, Table 1",4 mg/kg
same,ED50,female white mice; [5],> 324 mg/kg
same,ED50,female white mice; [6],19 mg/kg
same,ED50,female white mice; [7],37 mg/kg
same,ED50,[1],3.3 mg/kg
"c1ccc2c(c1)[C@@H]1C[C@@]3(CN(CC4CCCCCCC4)C[C@H]23)c2ccccc21 (relative stereo) [Example 34, 2-Cyclooctylmethyl-2,3,8,12b-tetrahydro-1H-3a,8-methanodibenzo[3,4:6,7]cyclohepta[1,2-c]pyrrole]",ED50,in vivo,> 324 mg/kg
same,LD50 at 24 h,in vivo,> 324 mg/kg
same,ED50,female white mice; [2],23 mg/kg
same,ED50,female white mice; [3],40 mg/kg
same,ED50,female white mice; [4],21 mg/kg
same,ED50,"female white mice; read-out: Ptosis ED50, Table 1",4 mg/kg
same,ED50,female white mice; [5],> 324 mg/kg
same,ED50,female white mice; [6],62 mg/kg
same,ED50,female white mice; [7],97 mg/kg
same,ED50,[1],6 mg/kg
"c1ccc2c(c1)[C@@H]1C[C@@]3(CN(C[C@H]4C[C@H]5CC[C@@H]4C5)C[C@H]23)c2ccccc21 (relative stereo) [Example 36, 2-(2-Endo-bicyclo[2.2.1]heptylmethyl)-2,3,8,12b-tetrahydro-1H-3a,8-methanodibenzo[3,4:6,7]cyclohepta[1,2-c]pyrrole]",ED50,in vivo,> 324 mg/kg
same,LD50 at 24 h,in vivo,> 324 mg/kg
same,ED50,female white mice; [2],60 mg/kg
same,ED50,female white mice; [3],60 mg/kg
same,ED50,female white mice; [4],60 mg/kg
same,ED50,"female white mice; read-out: Ptosis ED50, Table 1",20 mg/kg
same,ED50,female white mice; [5],> 324 mg/kg
same,ED50,female white mice; [6],60 mg/kg
same,ED50,female white mice; [7],100 mg/kg
same,ED50,[1],9.8 mg/kg
"C1=C[C@@H]2C[C@H]1C[C@H]2CN1C[C@@H]2c3ccccc3[C@@H]3C[C@@]2(C1)c1ccccc13 (relative stereo) [Example 37, 2-(2-Exo-bicyclo[2.2.1]hept-5-enylmethyl)-2,3,8,12b-tetrahydro-1H-3a,8-methanodibenzo[3,4:6,7]cyclohepta[1,2-c]pyrrole]",ED50,in vivo,> 324 mg/kg
same,LD50 at 24 h,in vivo,300 mg/kg
same,ED50,female white mice; [2],7 mg/kg
same,ED50,female white mice; [3],7 mg/kg
same,ED50,female white mice; [4],4 mg/kg
same,ED50,"female white mice; read-out: Ptosis ED50, Table 1",≤ 4 mg/kg
same,ED50,female white mice; [5],200 mg/kg
same,ED50,female white mice; [6],12 mg/kg
same,ED50,female white mice; [7],20 mg/kg
same,ED50,[1],2.4 mg/kg
"O=[N+]([O-])c1ccc2c(c1)[C@]13C[C@H]2c2ccccc2[C@H]1CN(CC1CCCC1)C3 (relative stereo) [Example 63, 5-Nitro-2-cyclopentylmethyl-2,3,8,12b-tetrahydro-1H-3a,8-methanodibenzo[3,4:6,7]cyclohepta[1,2-c]pyrrole Hydrochloride]",LD50 at 24 h,in vivo,> 324 mg/kg
same,ED50,female white mice; [8],200 mg/kg
same,ED50,female white mice; [9],12 mg/kg
same,ED50,female white mice; [10],36 mg/kg
same,ED50,female white mice; [11],7 mg/kg
same,ED50,female white mice; [12],> 324 mg/kg
same,ED50,female white mice; [13],100 mg/kg
same,ED50,female white mice; [14],20 mg/kg
"Cc1ccc2c(c1)[C@]13C[C@H]2c2ccccc2[C@H]1CN(CC1CCCC1)C3 (relative stereo) [Example 89, 5-Methyl-2-cyclopentylmethyl-2,3,8,12b-tetrahydro-1H-3a,8-methanodibenzo[3,4:6,7]cyclohepta[1,2-c]pyrrole]",LD50 at 24 h,in vivo,> 81 mg/kg
same,ED50,female white mice; [8],50 mg/kg
same,ED50,female white mice; [9],9 mg/kg
same,ED50,female white mice; [10],50 mg/kg
same,ED50,female white mice; [11],15 mg/kg
same,ED50,female white mice; [12],< 81 mg/kg
same,ED50,female white mice; [13],25 mg/kg
same,ED50,female white mice; [14],15 mg/kg
C[N+]1([O-])C[C@@H]2c3ccccc3[C@@H]3C[C@@]2(C1)c1ccccc13 (relative stereo) [Methyl-N-oxide],ED50,in vivo,36 mg/kg
same,LD50 at 24 h,in vivo,> 324 mg/kg
same,ED50,female white mice; [2],60 mg/kg
same,ED50,female white mice; [3],60 mg/kg
same,ED50,female white mice; [4],100 mg/kg
same,ED50,"female white mice; read-out: Ptosis ED50, Table 1",36 mg/kg
same,ED50,female white mice; [5],200 mg/kg
same,ED50,female white mice; [6],36 mg/kg
same,ED50,female white mice; [7],60 mg/kg
"c1ccc2c(c1)C1CC3(CN(CC4CCCC4)CC23)c2ccccc21 (single isomer, unassigned; (+)) [(+)-Cyclopentylmetnyl, 2-Cyclopentylmethyl-2,3,8,12b-tetrahydro-trans-1H,-3a,8-methanodibenzo[3,4:6,7]cyclohepta[1,2-c]pyrrole]",LD50,female white mice,> 324 mg/kg
same,Catatonia ED50,female white mice,36 mg/kg
same,Exploratory Loss Visual ED50,female white mice,36 mg/kg
same,Muscle Tone ED50,female white mice,60 mg/kg
same,Ptosis ED50,female white mice,20 mg/kg
same,Reflexes Grip ED50,female white mice,200 mg/kg
same,Reflexes Lift ED50,female white mice,60 mg/kg
same,Reflexes Pinna ED50,female white mice,20 mg/kg
same,Tremors ED50,female white mice,> 324 mg/kg
same,Phenylquinone Analgesia ED50,[1],24 mg/kg
"CN1CC2c3cc(Cl)ccc3C3CC2(C1)c1ccccc13.Cl (centres unmarked) [Example 80, 11-Chloro-2-methyl-2,3,8,12b-tetrahydro-1H-3a,8-methanodibenzo[3,4:6,7]cyclohepta[1,2-c]pyrrole Hydrochloride]",LD50 at 24 h,in vivo,200 mg/kg
same,ED50,female white mice; [8],100 mg/kg
same,ED50,female white mice; [9],7 mg/kg
same,ED50,female white mice; [10],20 mg/kg
same,ED50,female white mice; [11],20 mg/kg
same,ED50,female white mice; [12],60 mg/kg
same,ED50,female white mice; [13],20 mg/kg
same,ED50,female white mice; [14],20 mg/kg
"Cl.Clc1ccc2c(c1)C1CN(CC3CCCCC3)CC13CC2c1ccccc13 (centres unmarked) [Example 81, 11-Chloro-2-cyclohexylmethyl-2,3,8,12b-tetrahydro-1H-3a,8-methanodibenzo[3,4:6,7]cyclohepta[1,2-c]-pyrrole Hydrochloride]",LD50 at 24 h,in vivo,> 324 mg/kg
same,ED50,female white mice; [8],19 mg/kg
same,ED50,female white mice; [9],17 mg/kg
same,ED50,female white mice; [10],12 mg/kg
same,ED50,female white mice; [11],< 3 mg/kg
same,ED50,female white mice; [12],> 324 mg/kg
same,ED50,female white mice; [13],36 mg/kg
same,ED50,female white mice; [14],11 mg/kg
"Nitro-2-methyl-2,3,8,12b-tetrahydro-1H-3a,8-methanodibenzo[3,4:6,7]cyclohepta[1,2-c]pyrrole Hydrochloride [Example 57]",LD50,female white mice,200 mg/kg
same,Catatonia ED50,female white mice,> 324 mg/kg
same,Exploratory Loss Visual ED50,female white mice,20 mg/kg
same,Muscle Tone ED50,female white mice,60 mg/kg
same,Ptosis ED50,female white mice,12 mg/kg
same,Reflexes Grip ED50,female white mice,> 324 mg/kg
same,Reflexes Lift ED50,female white mice,> 324 mg/kg
same,Reflexes Pinna ED50,female white mice,12 mg/kg
same,Tremors ED50,female white mice,100 mg/kg
same,Phenylquinone Analgesia ED50,[1],5 mg/kg
